Patent publication EP0761672A1, “Cephalosporin containing in position 7 a substituted benzyloxyimino radical, processes for their preparation and intermediates for their preparation, their use as medicaments” (ROUSSEL UCLAF, priority 1995, dated 1997)
Values after ≈ are worked out from the molar mass of the structure shown.

How the values were obtained:
Assay in all cases: In vitro activity, dilution method in solid medium (MIC)
Assay type in all cases: cell-based
[1] = tested on: Enterobactéries Céfotaxime résistantes; conditions: 24 h, read-out: concentrations minimales inhibitrices (CMI), moyennes géométriques
Experimental: (§1) Activité in vitro, méthode des dilutions en milieu solide.
(§2) On prépare une série de boîtes dans lesquelles on répartit une même quantité de milieu nutritif stérile, contenant des quantités croissantes du produit à étudier puis chaque boîte est ensemencée avec plusieurs souches bactériennes.
(§3) Après incubation de 24 heures en étuve à 37°C, l'inhibition de la croissance est appréciée par l'absence de tout développement bactérien ce qui permet de déterminer les concentrations minimales inhibitrices (CMI) exprimées en microgrammes/cm^3.
(§4) Les résultats sont exprimés sous forme de moyennes géométriques de toutes les CMI obtenues, pour un groupe de souches particulier.

[2] = tested on: Staphylocoques Pénicilline résistants; conditions: Staphylocoques Pénicilline résistants (22 souches); geometric mean of all MICs of the strain group; 24 h incubation at 37°C; read-out: concentrations minimales inhibitrices (CMI), moyennes géométriques
Experimental: as §1, §2, §3, §4

Pseudomonas aeruginosa = Pseudomonas aeruginosa (23 souches); geometric mean of all MICs of the strain group; 24 h incubation at 37°C; read-out: concentrations minimales inhibitrices (CMI), moyennes géométriques
Experimental: as §1, §2, §3, §4

SMILES	MIC [1]	MIC [2]	MIC (Pseudomonas aeruginosa)
Nc1nc(/C(=N/OCc2cc(Cl)c(O)c(O)c2Cl)C(=O)N[C@@H]2C(=O)N3C(C(=O)[O-])=C(/C=C/C[n+]4cccc5ccccc54)CS[C@H]23)cs1 [Exemple 1]	0.11 µg/mL (≈ 0.151 µM)	0.78 µg/mL (≈ 1.07 µM)	–
Nc1nc(/C(=N/OCc2cc(Cl)c(O)c(O)c2Cl)C(=O)N[C@@H]2C(=O)N3C(C(=O)[O-])=C(/C=C/C[n+]4ccn5ccccc54)CS[C@H]23)cs1 [Exemple 2]	0.19 µg/mL (≈ 0.265 µM)	0.91 µg/mL (≈ 1.27 µM)	0.42 µg/mL (≈ 0.586 µM)
Nc1nc(/C(=N/OCc2cc(Cl)c(O)c(O)c2Cl)C(=O)N[C@@H]2C(=O)N3C(C(=O)[O-])=C(/C=C/C[n+]4cccc5c4CCC5)CS[C@H]23)cs1 [Exemple 3]	0.13 µg/mL (≈ 0.181 µM)	1.37 µg/mL (≈ 1.91 µM)	0.26 µg/mL (≈ 0.362 µM)
Nc1nc(/C(=N/OCc2cc(F)c(O)c(O)c2F)C(=O)N[C@@H]2C(=O)N3C(C(=O)[O-])=C(/C=C/C[n+]4cccc5ccccc54)CS[C@H]23)cs1 [Exemple 4]	0.38 µg/mL (≈ 0.547 µM)	0.37 µg/mL (≈ 0.533 µM)	0.14 µg/mL (≈ 0.202 µM)
Nc1nc(/C(=N/OCc2cc(F)c(O)c(O)c2F)C(=O)N[C@@H]2C(=O)N3C(C(=O)[O-])=C(/C=C/C[n+]4ccn5ccccc54)CS[C@H]23)cs1 [Exemple 5]	0.26 µg/mL (≈ 0.38 µM)	0.55 µg/mL (≈ 0.804 µM)	–
Nc1nc(/C(=N/OCc2cc(F)c(O)c(O)c2F)C(=O)N[C@@H]2C(=O)N3C(C(=O)[O-])=C(/C=C/C[n+]4cccc5c4CCC5)CS[C@H]23)cs1 [Exemple 6]	0.36 µg/mL (≈ 0.526 µM)	0.63 µg/mL (≈ 0.92 µM)	1.12 µg/mL (≈ 1.64 µM)
Nc1nc(/C(=N/OCc2cc(O)c(O)c(F)c2)C(=O)N[C@@H]2C(=O)N3C(C(=O)[O-])=C(/C=C/C[n+]4cccc5ccccc54)CS[C@H]23)cs1 [Exemple 7]	0.2 µg/mL (≈ 0.296 µM)	0.3 µg/mL (≈ 0.443 µM)	0.47 µg/mL (≈ 0.695 µM)
COC(=O)C(O/N=C(\C(=O)N[C@@H]1C(=O)N2C(C(=O)[O-])=C(/C=C/C[n+]3cccc4ccccc43)CS[C@H]12)c1csc(N)n1)c1cc(O)c(O)c(F)c1 (stereo partly drawn) [Exemple 8]	–	0.3 µg/mL (≈ 0.408 µM)	0.49 µg/mL (≈ 0.667 µM)
